Reference: US7341836B2, “Modified cyclic nucleotide gated ion channels” (The Regents of the University of Colorado, priority 2001, dated 2008)

How the values were obtained:
PDE X = molecular target: T1, PDE X (Mus musculus, UniProt Q8CA95); conditions: cited from earlier work
T1 construct: host or cells: heterologously expressed
T1 sequence (Q8CA95 1-790): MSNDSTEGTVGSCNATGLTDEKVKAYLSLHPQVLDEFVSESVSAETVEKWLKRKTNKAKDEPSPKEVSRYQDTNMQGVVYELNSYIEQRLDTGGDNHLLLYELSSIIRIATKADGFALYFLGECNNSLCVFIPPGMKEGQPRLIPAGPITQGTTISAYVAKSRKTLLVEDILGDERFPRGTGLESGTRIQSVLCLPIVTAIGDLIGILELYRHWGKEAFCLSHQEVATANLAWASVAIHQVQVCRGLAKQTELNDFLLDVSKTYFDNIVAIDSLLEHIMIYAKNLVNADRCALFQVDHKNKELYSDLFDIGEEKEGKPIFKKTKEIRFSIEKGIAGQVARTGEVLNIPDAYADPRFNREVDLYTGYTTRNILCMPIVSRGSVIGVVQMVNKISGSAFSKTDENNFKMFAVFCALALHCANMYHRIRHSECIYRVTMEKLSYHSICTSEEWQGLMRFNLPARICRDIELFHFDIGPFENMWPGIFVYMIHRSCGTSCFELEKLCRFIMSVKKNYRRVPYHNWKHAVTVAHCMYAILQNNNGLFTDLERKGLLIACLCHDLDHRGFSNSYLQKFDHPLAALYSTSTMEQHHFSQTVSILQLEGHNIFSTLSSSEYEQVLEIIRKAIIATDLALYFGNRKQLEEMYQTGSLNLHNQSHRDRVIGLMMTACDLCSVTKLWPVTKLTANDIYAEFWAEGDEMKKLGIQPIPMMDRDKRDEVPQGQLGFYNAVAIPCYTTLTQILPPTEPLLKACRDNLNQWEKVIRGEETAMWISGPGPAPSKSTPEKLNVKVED

PDE VII = molecular target: T2, PDE VII (UniProt Q9QXQ1); conditions: cited from earlier work
T2 sequence (Q9QXQ1 1-446): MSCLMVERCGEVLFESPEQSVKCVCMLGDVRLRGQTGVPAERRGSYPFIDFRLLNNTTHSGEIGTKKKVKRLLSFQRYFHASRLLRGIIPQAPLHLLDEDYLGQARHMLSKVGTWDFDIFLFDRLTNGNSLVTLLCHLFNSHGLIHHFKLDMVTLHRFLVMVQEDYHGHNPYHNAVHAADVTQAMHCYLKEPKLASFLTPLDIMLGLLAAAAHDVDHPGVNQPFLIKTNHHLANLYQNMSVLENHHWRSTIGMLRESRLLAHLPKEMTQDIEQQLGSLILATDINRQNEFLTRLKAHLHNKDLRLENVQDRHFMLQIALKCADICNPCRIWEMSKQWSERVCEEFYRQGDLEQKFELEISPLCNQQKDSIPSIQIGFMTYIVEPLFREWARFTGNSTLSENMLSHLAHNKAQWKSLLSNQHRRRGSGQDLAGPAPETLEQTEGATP

[1] = system: HEK-293 cells expressing C460W/E583M channels; test: PGE1-induced cAMP responses in cell populations (Ca2+ influx through C460W/E583M channels); format: cell-based, human; conditions: for effect of PDE inhibitor added after PGE1: 100 μM IBMX or 10 μM RO-20-1724
Excerpt: In this Example, experiments conducted to detect cAMP levels in cells are described. Changes in cyclic AMP concentrations in response to PGE1 stimulation were monitored in HEK-293 cells by measuring Ca^2+ influx through C460W/E583M CNG channels (See, Rich et al. [2001], supra). HEK-293 cells express a variety of extracellular receptors including prostanoid receptors (Thomas and Hoffman, Mol. Pharmacol., 49:907-914 [1996]), and the cAMP-specific PDE type IV (Rich et al. [2001], supra; and Hoffmann et al., EMBO J., 18:893-903 [1999]). Based on PCR analysis, these cells also appear to express AC types II, […], VI, and VII, (Hellevuo et al., Biochem. Biophys. Res. Commun., 192:311-318 [1993]). C460W/E583M channels were expressed heterologously using an adenovirus construct (See, Rich et al. [2001], supra). The Ca^2+ permeability of the channel was used to detect changes in local cAMP concentration; the fluorescent indicator fura-2 was used to monitor Ca^2+ entry. With this approach, incremental changes in cAMP concentration are readily detected as changes in relative Ca^2+ influx rates through C460W/E583M channels (See, Rich et al., [2001], supra).
Transient responses were observed over a large range of PGE1 concentrations, from 0.01 to 10 μM (FIG. 17, Panel A). […] The decline was unlikely to result primarily from a reduction in AC activity (e.g., receptor desensitization), because of the sustained accumulation of total cellular cAMP in the presence of IBMX (See, FIG. 16, Panel B). To verify this, 100 μM IBMX was added at various times after PGE1 application.
To test whether PGE1 did indeed increase the total PDE activity, 100 nM PGE1 were added at various times after the initial application of 100 nM PGE1 (a subsaturating concentration). There was a negligible response to the subsequent addition of PGE1, even after 50 min (FIG. 17, Panel D). Taken together, the results of the experiments shown in FIG. 17, Panels C and D argue that the cAMP transient is due to an initial increase in AC activity, followed by a more profound increase in PDE activity. […] As indicated herein, these processes are crucial for the generation of spatially and temporally distinct cAMP signals.

PDE III = conditions: cited from earlier work

For `CCCCCC[C@@H]([C@@H](C)O)n1cnc2c(N)ncnc21` (racemic) [EHNA], which IC50 (PDE X) is on record?
The IC50 was 69 µM.

And the IC50 (PDE VII)?
Its IC50 is greater than 100 µM.

What does the source list for `CC(C)Cn1c(=O)n(C)c(=O)c2[nH]cnc21` [IBMX, 3-isobutyl-1-methylxanthine]?
IC50 (PDE X): 2.6 µM; slopes of the IBMX-induced responses ([1]; 100 μM IBMX added 1-50 min after 100 nM PGE1): 0.0044 ± 0.0008 s⁻¹; effect of PDE inhibitor added after PGE1 [1]: triggered a rapid Ca^2+ influx; IC50 (PDE VII): 2 to 8 µM; IC50 (PDE III): 2 µM

For `COc1ccc(C2CNC(=O)C2)cc1OC1CCCC1` (stereo not drawn) [Rolipram], which IC50 (PDE X) is on record?
The IC50 was 47 µM.

What about the IC50 (PDE VII) of the same compound?
The IC50 was greater than 100 µM.

With `CCCCOc1cc(CC2CNC(=O)N2)ccc1OC` (stereo not drawn) [RO-20-1724, 4-(3-butoxy-4-methoxybenzyl)-2-imidazolidinone] as the compound, how does the “effect of PDE inhibitor added after PGE1” value [1] read?
The value was “caused sharp increases in cAMP”.

And the IC50 (PDE VII)?
Its IC50 is greater than 200 µM.

And the IC50 (PDE III)?
The IC50 was 52 µM.
